According to patent US20250304623A1, “PEPTIDES FOR INTRACELLULAR DELIVERY” (UNIVERSIDADE DE SANTIAGO DE COMPOSTELA, priority 2022, published 2025):
Starred links: 1 amine or outer side, 2 acyl side, 3 side chain; linkers in the order of their positions; H or OH if unused. Residues, ends and D or L forms follow the SMILES beside them. Groups on a side chain read outwards from the residue. *: point of attachment. Glutaryl = O=C(CCCC(=O)[*:2])[*:1]; NHNH2 = NN*

Legend:
Type in all cases: cell-based
A549 cells = assay: EGFP mRNA delivery, robotic library screening, A549
Protocol: (§1) Cells were seeded in a 96 well plate the day before the experiment at a concentration of 50,000 cell/mL (100 μL/w) in DMEM+10% FBS+1% Gln-Abt. For robotic library screening, the delivery of EGFP-mRNA (from TriLink, fully substituted with 5-methoxyuridine, capped and polyadenylated; TriLink, CleanCap® EGFP mRNA (5moU), ref. L-7201) in six different cell lines was performed. Amphiphilic molecule stock solutions were prepared in DMSO as described above and diluted in DMEM to afford a range of concentrations. The solutions of EGFP-mRNA/amphiphilic molecule complexes were freshly prepared prior to the transfection experiments. 35 μL of the corresponding amphiphile were added to 10 μL of a solution of EGFP-mRNA at 10 ng/μL in DMEM. The mixture was shaken for 30 min at room temperature before the addition to the cells. The cell medium was aspirated, and cells were washed with PBS twice. Cells were covered with 39 μL of DMEM and 11 μL of the complex's solution were added to the cells and incubated for 4 h (final concentration of peptide=2.5, 5 and 10 μM; final concentration of EGFP-mRNA=25 ng/well). After the incubation, the medium was replaced by 100 μL of fresh DMEM supplemented with 10% FBS. The total EGFP fluorescence was quantified after 72 h in a well plate reader. Amphiphile transfection efficiency was compared and normalized to Lipofectamine® MessengerMax efficiency (value of 1 in Tables 1-5 and 7; double underlined numbers). All experiments were done in triplicate.
(§2) Tables 1-7: RLuc (pDNA) or EGFP (mRNA) expression levels were normalized to Lipofectamine reagents (value=1) and expressed as fold-times signal increase. In the case of siRNA, the siRNA treated cells fluorescence was compared with siMOCK control fluorescence, while Cas9-RNP mediated knockout was measured against the fluorescence of untreated cells. In both siRNA and Cas9-RNP, values are expressed as % fluorescence reduction. Amphiphile concentration was 5 μM in all cases. All experiments were performed in triplicate.
(§3) Tables 14-19 show the mean (triplicates) fluorescence intensity measured after the transfection of EGFP mRNA by different amphiphiles at different concentrations in a variety of cell lines. Background fluorescence values, accounted by untreated control cells, were subtracted for processing.

HCT116 cells = assay: RLuc pDNA delivery, robotic library screening, HCT116
[1] = tested on: A549 cells expressing EGFP; assay: Cas9-RNP delivery against EGFP (gene editing, plate reader), A549; details: for percentage of gene editing, GFP fluorescence intensity decrease (% of reduction): A549 cells
Protocol: To generate an EGFP expressing HeLa cell line, HeLa cells were transfected with EGFP pDNA (pEGFP-C1, Clontech) and stable transfectants were selected with 400 μg/mL of G-418 (Millipore). Green clones were selected by epifluorescence microscopy and tested for EGFP expression stability through several passages. […] All other EGFP-expressing cell lines were obtained in a similar way from parent non-EGFP-expressing cell lines.
Cells expressing EGFP were seeded in a 96 well plate the day before the experiment at a concentration of 50,000 cell/mL (100 μL/w) in DMEM+10% FBS+1% Gln-Abt. For robotic library screening, the delivery of Cas9-RNP against EGFP (RNP designed to knock-out the gene encoding for the enhanced green fluorescent protein (EGFP)) was performed. For RNP assembly, 9.2 μL of crRNA and 9.2 μL of tracrRNA were mixed in 211.6 μL of Nuclease-Free Duplex Buffer (IDT), incubated for 5 min at 95° C. and slowly cooled at rt (see I. Lostalé-Seijo, et al. Peptide/Cas9 nanostructures for ribonucleoprotein cell membrane transport and gene edition, Chem. Sci., 2017). Cas9 protein was dissolved in DMEM at a final concentration of 4 μM and equal volumes of the RNA complex and Cas9 were mixed and incubated for 5 min at rt. 75 μL of the corresponding amphiphile concentrations were added to 5 μL of RNP at 2 μM. The mixture was shaken for 30 min at room temperature before the addition to the cells. The cell medium was aspirated, and cells were washed twice with PBS. Cells were covered with 30 μL of DMEM and 20 μL of the RNP/amphiphile complexes were added to the cells (final peptide concentrations=2.5, 5 and 10 μM; final Cas9-RNP concentration=50 nM) and incubated for 4 h. After the incubation, the medium was replaced by 100 μL of fresh DMEM supplemented with 10% FBS. The total EGFP fluorescence was quantified after 72 h in a plate reader (FIG. 2, Table 1 (right) and Table 6). All experiments were done in triplicate.
as §2
Tables 26-31 show the mean (triplicates) percentage of gene editing, accounted by GFP fluorescence intensity decrease (% of reduction), measured after the transfection of Cas9-RNP by different amphiphiles at different concentrations in a variety of cell lines. Background values, accounted by untreated control cells, were subtracted for processing.

Hela cells = assay: EGFP mRNA delivery, robotic library screening, HeLa
Protocol: as §1, §2, §3

Question: `CC(=O)N[C@@H](CCCNC(=N)N)C(=O)N[C@@H](CCCCNC(=O)CCCC(=O)NN)C(=O)N[C@@H](Cc1c[nH]cn1)C(=O)N[C@@H](CCCNC(=N)N)C(=O)N[C@@H](CCCCNC(=O)CCCC(=O)NN)C(=O)N[C@@H](CCCCNC(=O)CCCC(=O)NN)C(=O)N[C@@H](Cc1c[nH]cn1)C(N)=O` [7.3(L-H), Ac-RK*HRK*K*H-NH2] (Ac-RK([Glutaryl-NHNH2])HRK([Glutaryl-NHNH2])K([Glutaryl-NHNH2])H-NH2) was tested. Which “mean fluorescence intensity (EGFP mRNA)” value (A549 cells; Dodecanal, 2.5 μM) did it give?
Answer: Its value is 570.

Question: What about the “mean fluorescence intensity (EGFP mRNA)” value (A549 cells; Dodecanal, 5 μM) of the same compound?
Answer: The value was 375.

Question: What about the “mean fluorescence intensity (EGFP mRNA)” value (A549 cells; Dodecanal, 10 μM) of the same compound?
Answer: The value was 587.

Question: And the “mean fluorescence intensity (EGFP mRNA)” value (A549 cells; Myristoleyl, 2.5 μM)?
Answer: The value was 19549.

Question: What about the “mean fluorescence intensity (EGFP mRNA)” value (A549 cells; Myristoleyl, 5 μM) of the same compound?
Answer: The value was 6729.

Question: And the “mean fluorescence intensity (EGFP mRNA)” value (A549 cells; Myristoleyl, 10 μM)?
Answer: Its value is 2718.

Question: And the “mean fluorescence intensity (EGFP mRNA)” value (A549 cells; Oleyl, 2.5 μM)?
Answer: The value was 12392.

Question: And the “mean fluorescence intensity (EGFP mRNA)” value (A549 cells; Oleyl, 5 μM)?
Answer: The value was 4708.

Question: And the “mean fluorescence intensity (EGFP mRNA)” value (A549 cells; Oleyl, 10 μM)?
Answer: Its value is 1954.

Question: What about the “mean fluorescence intensity (EGFP mRNA)” value (A549 cells; Palmitoleyl, 2.5 μM) of the same compound?
Answer: Its value is 52764.

Question: And the “mean fluorescence intensity (EGFP mRNA)” value (A549 cells; Palmitoleyl, 5 μM)?
Answer: Its value is 19296.

Question: And the “mean fluorescence intensity (EGFP mRNA)” value (A549 cells; Palmitoleyl, 10 μM)?
Answer: Its value is 3995.

Question: And the “mean fluorescence intensity (EGFP mRNA)” value (A549 cells; Petroselinyl, 2.5 μM)?
Answer: Its value is 9125.

Question: What about the “mean fluorescence intensity (EGFP mRNA)” value (A549 cells; Petroselinyl, 5 μM) of the same compound?
Answer: The value was 2712.

Question: And the “mean fluorescence intensity (EGFP mRNA)” value (A549 cells; Petroselinyl, 10 μM)?
Answer: Its value is −119.

Question: And the “mRNA delivery relative to Lipofectamine MessengerMAX” value (A549 cells; palmitoleyl aldehyde)?
Answer: The value was “two times better”.

Question: And the “mean luminescent intensity (RLuc pDNA)” value (HCT116 cells; Myristoleyl, 5 μM)?
Answer: Its value is 193237 RLU.

Question: And the “mean luminescent intensity (RLuc pDNA)” value (HCT116 cells; Myristoleyl, 10 μM)?
Answer: The value was 172603 RLU.

Question: What about the “mean luminescent intensity (RLuc pDNA)” value (HCT116 cells; Myristoleyl, 15 μM) of the same compound?
Answer: Its value is 42433 RLU.

Question: What about the “mean luminescent intensity (RLuc pDNA)” value (HCT116 cells; Palmitoleyl, 5 μM) of the same compound?
Answer: Its value is 294813 RLU.

Question: What about the “mean luminescent intensity (RLuc pDNA)” value (HCT116 cells; Palmitoleyl, 10 μM) of the same compound?
Answer: Its value is 248907 RLU.

Question: And the “mean luminescent intensity (RLuc pDNA)” value (HCT116 cells; Palmitoleyl, 15 μM)?
Answer: Its value is 89543 RLU.

Question: What about the “mean luminescent intensity (RLuc pDNA)” value (HCT116 cells; Petroselinyl, 5 μM) of the same compound?
Answer: The value was 147949 RLU.

Question: What about the “mean luminescent intensity (RLuc pDNA)” value (HCT116 cells; Petroselinyl, 10 μM) of the same compound?
Answer: The value was 114522 RLU.

Question: What about the “mean luminescent intensity (RLuc pDNA)” value (HCT116 cells; Petroselinyl, 15 μM) of the same compound?
Answer: The value was 48178 RLU.

Question: And the “pDNA delivery, times better than Lipofectamine 2000” value (HCT116 cells; palmitoleyl aldehyde)?
Answer: The value was “up to 10 times”.

Question: And the “Cas9-RNP % fluorescence reduction” value ([1]; A549, 5 μM, Myr tail)?
Answer: The value was 60%.

Question: And the “Cas9-RNP % fluorescence reduction” value ([1]; A549, 5 μM, Pal tail)?
Answer: The value was 67%.

Question: And the “Cas9-RNP % fluorescence reduction” value ([1]; A549, 5 μM, Pet tail)?
Answer: Its value is 58%.

Question: What about the “efficiency on GFP silencing (Cas9-RNP delivery)” value ([1]; A549, myristoleyl, palmitoleyl or petroselinyl aldehydes) of the same compound?
Answer: Its value is 60-70%.

Question: And the “percentage of gene editing, GFP fluorescence intensity decrease (% of reduction)” value ([1]; Dodecanal, 15 μM)?
Answer: The value was −9%.

Question: And the “percentage of gene editing, GFP fluorescence intensity decrease (% of reduction)” value ([1]; Myristoleyl, 5 μM)?
Answer: Its value is 60%.

Question: What about the “percentage of gene editing, GFP fluorescence intensity decrease (% of reduction)” value ([1]; Myristoleyl, 10 μM) of the same compound?
Answer: The value was 29%.

Question: And the “percentage of gene editing, GFP fluorescence intensity decrease (% of reduction)” value ([1]; Myristoleyl, 15 μM)?
Answer: The value was 11%.

Question: And the “percentage of gene editing, GFP fluorescence intensity decrease (% of reduction)” value ([1]; Oleyl, 5 μM)?
Answer: The value was 22%.

Question: And the “percentage of gene editing, GFP fluorescence intensity decrease (% of reduction)” value ([1]; Oleyl, 10 μM)?
Answer: Its value is 31%.

Question: And the “percentage of gene editing, GFP fluorescence intensity decrease (% of reduction)” value ([1]; Oleyl, 15 μM)?
Answer: The value was 9%.

Question: And the “percentage of gene editing, GFP fluorescence intensity decrease (% of reduction)” value ([1]; Palmitoleyl, 5 μM)?
Answer: The value was 67%.

Question: And the “percentage of gene editing, GFP fluorescence intensity decrease (% of reduction)” value ([1]; Palmitoleyl, 10 μM)?
Answer: Its value is 35%.

Question: And the “percentage of gene editing, GFP fluorescence intensity decrease (% of reduction)” value ([1]; Palmitoleyl, 15 μM)?
Answer: The value was −6%.

Question: What about the “percentage of gene editing, GFP fluorescence intensity decrease (% of reduction)” value ([1]; Petroselinyl, 5 μM) of the same compound?
Answer: Its value is 59%.

Question: What about the “percentage of gene editing, GFP fluorescence intensity decrease (% of reduction)” value ([1]; Petroselinyl, 10 μM) of the same compound?
Answer: Its value is 29%.

Question: And the “percentage of gene editing, GFP fluorescence intensity decrease (% of reduction)” value ([1]; Petroselinyl, 15 μM)?
Answer: Its value is 26%.

Question: What about the “mean fluorescence intensity (EGFP mRNA)” value (Hela cells; HeLa, Myristoleyl, 2.5 μM) of the same compound?
Answer: Its value is 30978.

Question: And the “mean fluorescence intensity (EGFP mRNA)” value (Hela cells; HeLa, Oleyl, 2.5 μM)?
Answer: Its value is 13495.

Question: What about the “mean fluorescence intensity (EGFP mRNA)” value (Hela cells; HeLa, Oleyl, 5 μM) of the same compound?
Answer: The value was 16633.

Question: And the “mean fluorescence intensity (EGFP mRNA)” value (Hela cells; HeLa, Palmitoleyl, 2.5 μM)?
Answer: The value was 46778.

Question: And the “mean fluorescence intensity (EGFP mRNA)” value (Hela cells; HeLa, Petroselinyl, 2.5 μM)?
Answer: Its value is 15046.

Question: What about the “mean fluorescence intensity (EGFP mRNA)” value (Hela cells; HeLa, Petroselinyl, 10 μM) of the same compound?
Answer: Its value is 2234.

Question: What about the “mRNA delivery relative to Lipofectamine MessengerMAX” value (Hela cells; HeLa, myristoleyl, palmitoleyl or petroselinyl aldehydes) of the same compound?
Answer: The value was “between two and three times better”.

Question: What about the “mean fluorescence intensity (EGFP mRNA)” value (Hela cells; Hela, Myristoleyl, 5 μM) of the same compound?
Answer: The value was 3346.

Question: And the “mean fluorescence intensity (EGFP mRNA)” value (Hela cells; Hela, Palmitoleyl, 5 μM)?
Answer: The value was 21109.

Question: What about the “mean fluorescence intensity (EGFP mRNA)” value (Hela cells; Hela, Palmitoleyl, 10 μM) of the same compound?
Answer: Its value is 1577.

Question: And the “mean fluorescence intensity (EGFP mRNA)” value (Hela cells; Hela, Petroselinyl, 5 μM)?
Answer: Its value is 28395.
